Earlier results in US10709686B2, “Methods for treating pulmonary fibrosis” (David Weinstein Consulting, Inc., priority 2018, dated 2020).

Experiments:
[1] = biological target: T1, FKBP52 (Homo sapiens, UniProt Q02790); settings: treatment of fibroblasts for 2 hours
T1 construct: endogenous in cells
T1 sequence (Q02790 1-459): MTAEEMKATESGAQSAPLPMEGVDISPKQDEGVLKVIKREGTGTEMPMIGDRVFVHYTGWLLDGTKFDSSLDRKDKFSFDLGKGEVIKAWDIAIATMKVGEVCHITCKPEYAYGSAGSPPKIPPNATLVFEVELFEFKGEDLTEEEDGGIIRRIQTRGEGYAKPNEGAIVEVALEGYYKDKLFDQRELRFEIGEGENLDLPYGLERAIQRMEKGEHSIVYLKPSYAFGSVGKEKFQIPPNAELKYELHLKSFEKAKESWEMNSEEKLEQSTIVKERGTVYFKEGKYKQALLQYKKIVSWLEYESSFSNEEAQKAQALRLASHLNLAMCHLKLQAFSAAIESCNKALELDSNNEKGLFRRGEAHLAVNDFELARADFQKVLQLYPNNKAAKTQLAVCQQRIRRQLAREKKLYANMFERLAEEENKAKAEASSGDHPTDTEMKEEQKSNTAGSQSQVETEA

[2] = biological target: T2, FK506 binding protein 4 (FKBP52) (Homo sapiens, UniProt Q02790)
T2 sequence (Q02790 1-459): T1 sequence (Q02790 1-459)

CCC(C)(C)C(=O)C(=O)N1CCC[C@H]1C(=O)O [RT175]
Translocation of FKBP52 to the nucleus [1]: results in the translocation of FKBP52 to the nucleus
Binding affinity to FKBP52 [2]: binds with high affinity
